Experimental data taken from ChEMBL document CHEMBL5338753, “Stapled Peptides as Direct Inhibitors of Nrf2-sMAF Transcription Factors” (J Med Chem, 2023).
Activity calls are given as the source filed them. The calls are words filed in the database; no cut-off is given here. Positions of bridges follow the written chain, without caps; N, C: chain ends. Non-standard residues stand in square brackets, D forms with d. Residues, ends and D or L forms follow the SMILES beside them. ξ: configuration not given here. *: point of attachment. Biotin = O=C1N[C@H]2[C@H](CS[C@H]2CCCCC(=O)*)N1; R5 = C=CCCC[C@@](C)(N)C(=O)O; ξIle = CC[C@H](C)C(N)C(=O)O; Ahx = NCCCCCC(=O)O

Columns and labels:
[1] = target: T1, Transcription factor MafG (Homo sapiens, UniProt O15525); experiment: Binding affinity to human His-tagged MafG expressed in Escherichia coli Rosetta (DE3) by immunoprecipitation assay
T1 sequence (O15525 whole entry): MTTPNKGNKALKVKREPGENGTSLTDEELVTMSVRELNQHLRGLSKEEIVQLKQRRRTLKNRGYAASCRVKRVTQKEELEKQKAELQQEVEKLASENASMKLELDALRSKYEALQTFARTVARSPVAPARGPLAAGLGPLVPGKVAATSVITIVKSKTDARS

[2] = target: T1, Transcription factor MafG; experiment: Binding affinity to human His-tagged MafG at 1 uM incubated for 10 mins with 188 to 3000 nM protein by SPR analysis
[3] = target: T2, Nuclear factor erythroid 2-related factor 2 (Homo sapiens) (UniProt Q16236); experiment: Inhibition of human Nrf2 in HEK-293T cells expressing NQO1-ARE-firefly luciferase and TK-Renilla luciferase at 50 uM incubated for 16 hrs by Dual-Luciferase reporter based luminometer analysis; type: cell-based
T2 sequence (whole entry): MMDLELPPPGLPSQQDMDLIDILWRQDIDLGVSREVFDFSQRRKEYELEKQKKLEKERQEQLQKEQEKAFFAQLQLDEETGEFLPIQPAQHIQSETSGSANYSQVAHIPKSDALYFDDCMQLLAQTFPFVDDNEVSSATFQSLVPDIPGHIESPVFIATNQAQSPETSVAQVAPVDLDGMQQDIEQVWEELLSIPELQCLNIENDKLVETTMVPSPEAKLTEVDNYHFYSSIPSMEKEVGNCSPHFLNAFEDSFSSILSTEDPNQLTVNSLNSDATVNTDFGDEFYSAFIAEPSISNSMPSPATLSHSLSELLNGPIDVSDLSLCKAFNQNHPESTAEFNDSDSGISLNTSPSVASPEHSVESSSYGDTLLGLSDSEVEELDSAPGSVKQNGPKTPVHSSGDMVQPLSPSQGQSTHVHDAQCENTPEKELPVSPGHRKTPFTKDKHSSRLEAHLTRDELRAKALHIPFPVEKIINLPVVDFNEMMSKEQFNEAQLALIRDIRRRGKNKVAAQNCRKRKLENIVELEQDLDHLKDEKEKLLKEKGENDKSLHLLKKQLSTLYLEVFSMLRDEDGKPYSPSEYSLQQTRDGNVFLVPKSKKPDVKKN

[4] = Stability of compound assessed as proteinase K (unknown origin) mediated compound degradation at 55 uM measured after 40 mins by LC/MS analysis; type: ADME; conditions: human
[5] = Stability of compound assessed as proteinase K (unknown origin) mediated compound degradation at 55 uM measured upto 24 hrs by LC/MS analysis; type: ADME; conditions: human
[6] = target: Albumin (Bos taurus, UniProt P02769); experiment: Binding affinity to bovine serum albumin at 1 uM by SPR analysis; conditions: cattle
Albumin, sequence (P02769 whole entry): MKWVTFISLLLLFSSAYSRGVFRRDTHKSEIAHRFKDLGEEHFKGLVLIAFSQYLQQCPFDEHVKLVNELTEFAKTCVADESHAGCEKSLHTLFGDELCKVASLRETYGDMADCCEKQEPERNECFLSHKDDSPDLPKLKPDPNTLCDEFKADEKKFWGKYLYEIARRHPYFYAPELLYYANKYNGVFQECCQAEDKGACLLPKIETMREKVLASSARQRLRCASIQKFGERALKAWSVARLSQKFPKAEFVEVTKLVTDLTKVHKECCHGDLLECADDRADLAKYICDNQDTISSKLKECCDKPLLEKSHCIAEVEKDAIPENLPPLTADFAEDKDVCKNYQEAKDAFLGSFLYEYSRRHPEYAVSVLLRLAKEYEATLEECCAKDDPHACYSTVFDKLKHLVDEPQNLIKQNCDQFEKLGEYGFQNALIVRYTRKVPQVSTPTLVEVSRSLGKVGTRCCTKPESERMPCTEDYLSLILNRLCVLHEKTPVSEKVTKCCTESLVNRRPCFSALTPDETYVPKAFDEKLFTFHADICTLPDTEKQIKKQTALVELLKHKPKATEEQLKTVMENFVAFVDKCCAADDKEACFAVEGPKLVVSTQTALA

[7] = target: T1, Transcription factor MafG; experiment: Binding affinity to human His-tagged MafG expressed in Escherichia coli Rosetta (DE3) incubated in presence of unlabeled peptide by immunoprecipitation assay
[8] = target: T1, Transcription factor MafG; experiment: Binding affinity to human His-tagged MafG assessed as dissociation constant incubated for 10 mins by SPR analysis
[9] = target: T2, Nuclear factor erythroid 2-related factor 2 (Homo sapiens); experiment: Inhibition of human Nrf2 in HEK-293T cells expressing ARE-firefly luciferase and TK-Renilla luciferase at 0 to 100 uM incubated for 16 hrs by Dual-Luciferase reporter based luminometer analysis; type: cell-based; conditions: dose 0-100 µM

Molecule | Activity [1] | inhibition [3] | other results
CC(C)C[C@H](NC(=O)[C@H](CCCCN)NC(=O)[C@H](CCC(=O)O)NC(=O)[C@H](CCCCN)NC(=O)[C@H](CCC(=O)O)NC(=O)[C@H](CC(=O)O)NC(=O)CCCCCNC(=O)CCCC[C@@H]1SC[C@@H]2NC(=O)N[C@@H]21)C(=O)N[C@]1(C)CCC/C=C\CCC[C@](C)(C(=O)N[C@@H](CCC(=O)O)C(=O)N[C@@H](CC(N)=O)C(=O)N[C@@H](CC(=O)O)C(=O)N[C@@H](CCCCN)C(=O)N[C@@H](CO)C(N)=O)NC(=O)[C@H](CCCCN)NC(=O)[C@H](CCC(=O)O)NC(=O)[C@H](CCCCN)NC1=O ({Biotin-Ahx}-DEKEKL[R5]KEK[R5]ENDKS-NH2; staple (Z) 7-11) | inactive | – | Activity [2]: inactive
CC(C)C[C@H](NC(=O)[C@H](CC(=O)O)NC(=O)CCCCCNC(=O)CCCC[C@@H]1SC[C@@H]2NC(=O)N[C@@H]21)C(=O)N[C@@H](CC(=O)O)C(=O)N[C@@H](Cc1c[nH]cn1)C(=O)N[C@@H](CC(C)C)C(=O)N[C@]1(C)CCC/C=C\CCC[C@](C)(C(=O)N[C@@H](CCCCN)C(=O)N[C@@H](CC(C)C)C(=O)N[C@@H](CC(C)C)C(=O)N[C@@H](CCCCN)C(=O)N[C@@H](CCC(=O)O)C(=O)N[C@@H](CCCCN)C(N)=O)NC(=O)[C@H](CCCCN)NC(=O)[C@H](CCC(=O)O)NC(=O)[C@H](CC(=O)O)NC1=O ({Biotin-Ahx}-DLDHL[R5]DEK[R5]KLLKEK-NH2; staple (Z) 6-10) | inactive | – | –
Ac-DLDHLKDEKEKLLKEK-NH2 | – | inactive | –
CC[C@H](C)C(NC(=O)CCCCCNC(=O)CCCC[C@@H]1SC[C@@H]2NC(=O)N[C@@H]21)C(=O)N[C@H](C(=O)N[C@@H](CCC(=O)O)C(=O)N[C@@H](CC(C)C)C(=O)N[C@@H](CCC(=O)O)C(=O)N[C@]1(C)CCC/C=C\CCC[C@](C)(C(=O)N[C@@H](CC(C)C)C(=O)N[C@@H](CCCCN)C(=O)N[C@@H](CC(=O)O)C(=O)N[C@@H](CCC(=O)O)C(=O)N[C@@H](CCCCN)C(=O)N[C@@H](CCC(=O)O)C(N)=O)NC(=O)[C@H](CC(=O)O)NC(=O)[C@H](CC(C)C)NC(=O)[C@H](CC(=O)O)NC1=O)C(C)C (stereo partly specified) ({Biotin-Ahx}-[ξIle]VELE[R5]DLD[R5]LKDEKE-NH2; staple (Z) 6-10) | Active | – | Activity [6]: Not Active; Activity [7]: Active; Kd [8]: 337 nM
CC(=O)N[C@@H](C)C(=O)N[C@H](C(=O)N[C@@H](CCC(=O)O)C(=O)N[C@@H](C)C(=O)N[C@@H](CCC(=O)O)C(=O)N[C@]1(C)CCC/C=C\CCC[C@](C)(C(=O)N[C@@H](C)C(=O)N[C@@H](CCCCN)C(=O)N[C@@H](CC(=O)O)C(=O)N[C@@H](CCC(=O)O)C(=O)N[C@@H](C)C(=O)N[C@@H](CCC(=O)O)C(N)=O)NC(=O)[C@H](CC(=O)O)NC(=O)[C@H](C)NC(=O)[C@H](CC(=O)O)NC1=O)C(C)C (Ac-AVEAE[R5]DAD[R5]AKDEAE-NH2; staple (Z) 6-10) | – | – | inhibition [9]: inactive
Ac-IVELEQDLDHLKDEKE-NH2 | – | inactive | Stability [5]: Unstable

Now from value to molecule, other results behind:

Activity [1] | inhibition [3] | Molecule | other results
– | inactive | Ac-DEKEKLLKEKGENDKS-NH2 | –
– | inactive | CC(=O)N[C@@H](CC(=O)O)C(=O)N[C@@H](CC(C)C)C(=O)N[C@@H](CC(=O)O)C(=O)N[C@@H](Cc1c[nH]cn1)C(=O)N[C@@H](CC(C)C)C(=O)N[C@]1(C)CCC/C=C\CCC[C@](C)(C(=O)N[C@@H](CCCCN)C(=O)N[C@@H](CC(C)C)C(=O)N[C@@H](CC(C)C)C(=O)N[C@@H](CCCCN)C(=O)N[C@@H](CCC(=O)O)C(=O)N[C@@H](CCCCN)C(N)=O)NC(=O)[C@H](CCCCN)NC(=O)[C@H](CCC(=O)O)NC(=O)[C@H](CC(=O)O)NC1=O (Ac-DLDHL[R5]DEK[R5]KLLKEK-NH2; staple (Z) 6-10) | Stability [4]: Unstable
– | inactive | CC(=O)N[C@@H](CC(=O)O)C(=O)N[C@@H](CCC(=O)O)C(=O)N[C@@H](CCCCN)C(=O)N[C@@H](CCC(=O)O)C(=O)N[C@@H](CCCCN)C(=O)N[C@@H](CC(C)C)C(=O)N[C@]1(C)CCC/C=C\CCC[C@](C)(C(=O)N[C@@H](CCC(=O)O)C(=O)N[C@@H](CC(N)=O)C(=O)N[C@@H](CC(=O)O)C(=O)N[C@@H](CCCCN)C(=O)N[C@@H](CO)C(N)=O)NC(=O)[C@H](CCCCN)NC(=O)[C@H](CCC(=O)O)NC(=O)[C@H](CCCCN)NC1=O (Ac-DEKEKL[R5]KEK[R5]ENDKS-NH2; staple (Z) 7-11) | Stability [5]: Stable
